The target in this assay is PAK1 (Homo sapiens, UniProt Q13153). The experiment in a line: PAK1 enzymatic assay (Kinase-Glo Plus / ADP-Glo luminescence). The format is biochemical. The settings on record: tested in triplicate, mean ± SD; 50 µM ATP; read-out: Kinase inhibitory activity (IC50, μM) PAK1. As for the experimental part: These assays were carried out as described previously. All of the enzymatic reactions were conducted at 30 °C for 40 min. The 50 µl reaction mixture contains 40 mM Tris, pH 7.4, 10 mM MgCl2, 0.1 mg/ml BSA, 1 mM DTT, 50 µM ATP, 0.2 μg/ml PAK1 and 100 uM lipid substrate. The compounds were diluted in 10% DMSO and 5 µl of the dilution was added to a 50 µl reaction so that the final concentration of DMSO is 1% in all of the reactions. The assay was performed using the Kinase-Glo Plus luminescence kinase assay kit and ADP-Glo Plus luminescence kinase assay kit. It measures kinase activity by quantitating the amount of ATP remaining in solution following a kinase reaction. The luminescent signal from the assay is correlated with the amount of ATP present and is inversely correlated with the amount of kinase activity. The IC50 values were calculated using nonlinear regression with normalised dose − response fit using Prism GraphPad software.
PAK1, sequence (Q13153 whole entry): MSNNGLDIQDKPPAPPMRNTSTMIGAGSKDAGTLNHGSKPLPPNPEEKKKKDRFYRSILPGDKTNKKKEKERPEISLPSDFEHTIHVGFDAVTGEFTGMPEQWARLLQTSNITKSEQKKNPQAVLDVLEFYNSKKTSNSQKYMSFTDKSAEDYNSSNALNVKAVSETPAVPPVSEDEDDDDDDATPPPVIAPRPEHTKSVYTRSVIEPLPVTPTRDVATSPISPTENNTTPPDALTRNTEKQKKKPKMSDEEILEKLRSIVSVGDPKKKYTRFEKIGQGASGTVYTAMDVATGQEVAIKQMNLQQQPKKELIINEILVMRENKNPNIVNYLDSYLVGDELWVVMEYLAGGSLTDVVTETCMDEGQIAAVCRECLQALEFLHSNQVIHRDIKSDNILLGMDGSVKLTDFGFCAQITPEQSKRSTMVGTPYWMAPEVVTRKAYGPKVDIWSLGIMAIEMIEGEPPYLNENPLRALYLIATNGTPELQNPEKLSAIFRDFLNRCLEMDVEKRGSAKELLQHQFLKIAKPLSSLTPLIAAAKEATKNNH
In general terms: Kinase-Glo reads ATP consumption through a luciferase reaction.
As to `NC(=O)c1c(NC(=S)NC(=O)c2cccc(C(F)(F)F)c2)sc2c1CCN(C(=O)C1CCCCC1)C2` [Compound 7m, 6-(cyclohexanecarbonyl)-2–(3-(3-(trifluoromethyl)benzoyl)thioureido)-4,5,6,7-tetrahydrothieno[2,3-c]pyridine-3-carboxamide], the IC50 (usually the point on the concentration scale where inhibition reaches its midpoint) worked out at 4.55 ± 0.51 µM.

Regarding `NC(=O)c1c(NC(=S)NC(=O)c2cccc(C(F)(F)F)c2)sc2c1CCN(C(=O)C1CCCC1)C2` [Compound 7l, 6-(cyclopentanecarbonyl)-2–(3-(3-(trifluoromethyl)benzoyl)thioureido)-4,5,6,7-tetrahydrothieno[2,3-c]pyridine-3-carboxamide], the IC50 came to 1.09 ± 0.09 µM. As to `CC(C)(C)OC(=O)N1CCc2c(sc(NC(=S)NC(=O)c3ccc(F)cc3)c2C(N)=O)C1` [Compound 5h, Tert-butyl-3-carbamoyl-2–(3-(4-fluorobenzoyl)thioureido)-4,7-dihydrothieno[2,3-c]pyridine-6(5H)-carboxylate], the IC50 was 5.33 ± 0.65 µM.

Regarding `CC(C)(C)OC(=O)N1CCc2c(sc(NC(=S)NC(=O)c3ccc(Cl)cc3)c2C(N)=O)C1` [Compound 5j, Tert-butyl-3-carbamoyl-2–(3-(4-chlorobenzoyl)thioureido)-4,7-dihydrothieno[2,3-c]pyridine-6(5H)-carboxylate], the IC50 worked out at 9.12 ± 0.95 µM. `Cc1ccc(C(=O)NC(=S)Nc2sc3c(c2C(N)=O)CCN(C(=O)OC(C)(C)C)C3)cc1` [Compound 5b, Tert-butyl-3-carbamoyl-2–(3-(4-methylbenzoyl)thioureido)-4,7-dihydrothieno[2,3-c]pyridine-6(5H)-carboxylate]: the concentration for half-maximal inhibition (IC50) came to 7.28 ± 0.78 µM.

For `COc1ccc(C(=O)NC(=S)Nc2sc3c(c2C(N)=O)CCN(C(=O)OC(C)(C)C)C3)cc1` [Compound 5f, Tert-butyl-3-carbamoyl-2–(3-(4-methoxybenzoyl)thioureido)-4,7-dihydrothieno[2,3-c]pyridine-6(5H)-carboxylate], the IC50 came out at 16.4 ± 1.78 µM.

For `Cc1ccccc1C(=O)NC(=S)Nc1sc2c(c1C(N)=O)CCN(C(=O)OC(C)(C)C)C2` [Compound 5c, Tert-butyl-3-carbamoyl-2–(3-(2-methylbenzoyl)thioureido)-4,7-dihydrothieno[2,3-c]pyridine-6(5H)-carboxylate], the IC50 is 6.21 ± 0.69 µM.

As to `CC(C)(C)OC(=O)N1CCc2c(sc(NC(=S)NC(=O)c3ccc(C(F)(F)F)cc3)c2C(N)=O)C1` [Compound 5n, Tert-butyl-3-carbamoyl-2–(3-(4-(trifluoromethyl)benzoyl)thioureido)-4,7-dihydrothieno[2,3-c]pyridine-6(5H)-carboxylate], the IC50 was found to be 12.1 ± 1.35 µM. `CC(C)(C)OC(=O)N1CCc2c(sc(NC(=S)NC(=O)c3cccc(Cl)c3)c2C(N)=O)C1` [Compound 5l, Tert-butyl-3-carbamoyl-2–(3-(3-chlorobenzoyl)thioureido)-4,7-dihydrothieno[2,3-c]pyridine-6(5H)-carboxylate]: the IC50 was 5.15 ± 0.54 µM. With `Cc1cc(C)c(C(=O)NC(=S)Nc2sc3c(c2C(N)=O)CCN(C(=O)OC(C)(C)C)C3)c(C)c1` [Compound 5e, Tert-butyl-3-carbamoyl-2–(3-(2,4,6-trimethylbenzoyl)thioureido)-4,7-dihydrothieno[2,3-c]pyridine-6(5H)-carboxylate], the IC50 was 11.2 ± 1.01 µM. Under `CC(C)(C)OC(=O)N1CCc2c(sc(NC(=S)NC(=O)c3cccc(C(F)(F)F)c3)c2C(N)=O)C1` [Compound 5m, Tert-butyl-3-carbamoyl-2–(3-(3-(trifluoromethyl)benzoyl)thioureido)-4,7-dihydrothieno[2,3-c]pyridine-6(5H)-carboxylate] stands 2.02 ± 0.27 µM. Regarding `CC(C)(C)OC(=O)N1CCc2c(sc(NC(=S)NC(=O)C3CCCCC3)c2C(N)=O)C1` [Compound 5p, Tert-butyl-3-carbamoyl-2–(3-(cyclohexanecarbonyl)thioureido)-4,7-dihydrothieno[2,3-c]pyridine-6(5H)-carboxylate], the IC50 came to 19.3 ± 1.85 µM. The same measure for `NC(=O)c1c(NC(=S)NC(=O)c2cccc(C(F)(F)F)c2)sc2c1CCN(C(=O)CCCl)C2` [Compound 7g, 6–(3-chloropropanoyl)-2–(3-(3-(trifluoromethyl)benzoyl)thioureido)-4,5,6,7-tetrahydrothieno[2,3-c]pyridine-3-carboxamide]: 5.75 ± 0.63 µM; for `NC(=O)c1c(NC(=S)NC(=O)c2cccc(C(F)(F)F)c2)sc2c1CCN(C(=O)C1CCC1)C2` [Compound 7k, 6-(cyclobutanecarbonyl)-2–(3-(3-(trifluoromethyl)benzoyl)thioureido)-4,5,6,7-tetrahydrothieno[2,3-c]pyridine-3-carboxamide]: 0.68 ± 0.07 µM; for `CC(C)(C)OC(=O)N1CCc2c(sc(NC(=S)NC(=O)Cc3cccs3)c2C(N)=O)C1` [Compound 5q, Tert-butyl-3-carbamoyl-2–(3-(2-(thiophen-2-yl)acetyl)thioureido)-4,7-dihydrothieno[2,3-c]pyridine-6(5H)-carboxylate]: 15.6 ± 1.64 µM.

As to `CC(C)(C)OC(=O)N1CCc2c(sc(NC(=S)NC(=O)c3ccccc3F)c2C(N)=O)C1` [Compound 5i, Tert-butyl-3-carbamoyl-2–(3-(2-fluorobenzoyl)thioureido)-4,7-dihydrothieno[2,3-c]pyridine-6(5H)-carboxylate], the IC50 was found to be 7.82 ± 0.71 µM. As for `CC(C)(C)OC(=O)N1CCc2c(sc(NC(=S)NC(=O)c3cccc(Cl)c3Cl)c2C(N)=O)C1` [Compound 5o, Tert-butyl-3-carbamoyl-2–(3-(2,3-dichlorobenzoyl)thioureido)-4,7-dihydrothieno[2,3-c]pyridine-6(5H)-carboxylate], the IC50 turned out to be 7.43 ± 0.81 µM. The same measure for `CC(C)(C)OC(=O)N1CCc2c(sc(NC(=S)NC(=O)c3ccc(Br)cc3)c2C(N)=O)C1` [Compound 5g, Tert-butyl-2–(3-(4-bromobenzoyl)thioureido)-3-carbamoyl-4,7-dihydrothieno[2,3-c]pyridine-6(5H)-carboxylate]: 9.35 ± 0.97 µM; for `C/C=C/C(=O)N1CCc2c(sc(NC(=S)NC(=O)c3cccc(C(F)(F)F)c3)c2C(N)=O)C1` [Compound 7h, (E)-6-(but-2-enoyl)-2–(3-(3-(trifluoromethyl)benzoyl)thioureido)-4,5,6,7-tetrahydrothieno[2,3-c]pyridine-3-carboxamide]: 4.14 ± 0.51 µM; for `Cc1cccc(C(=O)NC(=S)Nc2sc3c(c2C(N)=O)CCN(C(=O)OC(C)(C)C)C3)c1` [Compound 5d, Tert-butyl-3-carbamoyl-2–(3-(3-methylbenzoyl)thioureido)-4,7-dihydrothieno[2,3-c]pyridine-6(5H)-carboxylate]: 4.32 ± 0.51 µM. The same measure for `C=C(C)C(=O)N1CCc2c(sc(NC(=S)NC(=O)c3cccc(C(F)(F)F)c3)c2C(N)=O)C1` [Compound 7i, 6-methacryloyl-2–(3-(3-(trifluoromethyl)benzoyl)thioureido)-4,5,6,7-tetrahydrothieno[2,3-c]pyridine-3-carboxamide]: 3.42 ± 0.33 µM. The same measure for `Cc1ccccc1C(=O)N1CCc2c(sc(NC(=S)NC(=O)c3cccc(C(F)(F)F)c3)c2C(N)=O)C1` [Compound 7a, 6–(2-methylbenzoyl)-2–(3-(3-(trifluoromethyl)benzoyl)thioureido)-4,5,6,7-tetrahydrothieno[2,3-c]pyridine-3-carboxamide]: 10.2 ± 1.13 µM. For `NC(=O)c1c(NC(=S)NC(=O)c2cccc(C(F)(F)F)c2)sc2c1CCN(C(=O)C1CCOCC1)C2` [Compound 7n, 6-(tetrahydro-2H-pyran-4-carbonyl)-2–(3-(3-(trifluoromethyl)benzoyl)thioureido)-4,5,6,7-tetrahydrothieno[2,3-c]pyridine-3-carboxamide], the IC50 is 4.87 ± 0.65 µM. Consider `CC(C)CC(=O)N1CCc2c(sc(NC(=S)NC(=O)c3cccc(C(F)(F)F)c3)c2C(N)=O)C1` [Compound 7f, 6–(3-methylbutanoyl)-2–(3-(3-(trifluoromethyl)benzoyl)thioureido)-4,5,6,7-tetrahydrothieno[2,3-c]pyridine-3-carboxamide], for which the IC50 was 3.87 ± 0.35 µM.

As to `CC(C)C(=O)N1CCc2c(sc(NC(=S)NC(=O)c3cccc(C(F)(F)F)c3)c2C(N)=O)C1` [Compound 7e, 6-isobutyryl-2–(3-(3-(trifluoromethyl)benzoyl)thioureido)-4,5,6,7-tetrahydrothieno[2,3-c]pyridine-3-carboxamide], the IC50 was found to be 3.08 ± 0.29 µM. Under `CC(C)(C)OC(=O)N1CCc2c(sc(NC(=S)NC(=O)c3ccccc3)c2C(N)=O)C1` [Compound 5a, Tert-butyl-2–(3-benzoylthioureido)-3-carbamoyl-4,7-dihydrothieno[2,3-c]pyridine-6(5H)-carboxylate] stands 7.64 ± 0.72 µM. As to `CC(C)(C)OC(=O)N1CCc2c(sc(NC(=S)NC(=O)c3ccccc3Cl)c2C(N)=O)C1` [Compound 5k, Tert-butyl-3-carbamoyl-2–(3-(2-chlorobenzoyl)thioureido)-4,7-dihydrothieno[2,3-c]pyridine-6(5H)-carboxylate], the IC50 was 8.65 ± 0.93 µM. Under `NC(=O)c1c(NC(=S)NC(=O)c2cccc(C(F)(F)F)c2)sc2c1CCN(C(=O)c1ccc(Cl)cc1)C2` [Compound 7b, 6–(4-chlorobenzoyl)-2–(3-(3-(trifluoromethyl)benzoyl)thioureido)-4,5,6,7-tetrahydrothieno[2,3-c]pyridine-3-carboxamide] stands 13.2 ± 1.39 µM.
